Common to all, as to test: microbe, parasite or virus in culture
Format in all cases: cell-based, Hepatitis C virus (HCV)

One experiment relates to HCV replicon 1AY93H. Particulars: Replicon Assay A; for IC50: read-out: 1A Y93H IC50 (nM), replicon 1AY93H. A digest of the protocol: (§1)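 Three-day treatment of replicon cells (2000/well, 5% FBS, 0.5% DMSO), followed by TaqMan RT-PCR of replicon RNA with cyclophilin as internal control.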
A general note: Replicon systems follow genome replication, usually without infectious particles.

Another experiment has as its system HCV replicon 1A. Particulars: Replicon Assay A. The method in brief:
as §1

For the next experiment, the system named is HCV replicon 2B. Particulars: Replicon Assay A; for IC50: read-out: 2B IC50 (nM), replicon 2B. The method in brief: as §1
For another experiment, the system named is HCV replicon 1AQ30D. Particulars: Replicon Assay B; for IC50: read-out: 1A Q30D IC50 (nM), replicon 1AQ30D.
The subject of another experiment is HCV replicon 1B. Particulars: Replicon Assay B.
[1] abbreviates: replicon 1AY93H, read-out: 1A Y93H IC50.
The mark [2] stands for this setting: replicon 1AQ30D, read-out: 1A Q30D IC50.
Setting [3] is: read-out: 1A Y93H IC50, replicon 1AY93H.
The mark [4] stands for this setting: read-out: 1A Q30D IC50, replicon 1AQ30D.

Consider 15 molecules from US20160257697A1, “THIOPHENE-SUBSTITUTED TETRACYCLIC COMPOUNDS AND METHODS OFUSE THEREOF FOR THE TREATMENT OF VIRAL DISEASES” (priority 2013, published 2016).

Molecules are shown by their SMILES. pIC50: −log10 of the molar value. Like-named read-outs stand apart in the source and are kept apart here.

By pIC50 is commonly meant −log10 of the IC50, conventionally taken in molar units. Regarding `COC(=O)NC(C(=O)N1CCCC1c1ncc(-c2cc(F)c3c(c2)OC(c2cc4c(s2)CC2(C4)OCCO2)n2c-3cc3cc(-c4cnc(C5CCCN5C(=O)C(NC(=O)OC)C(C)C)[nH]4)ccc32)[nH]1)C(C)C` (mixture of isomers) [Compound 847], the negative logarithm of the IC50 (pIC50) is 9.67 in the experiment with HCV replicon 1AY93H (HCV replicon 1A Y93H, read-out: 1A Y93H IC50); 11.42 in the experiment on HCV replicon 1A (HCV replicon 1A); 9.51 in the experiment on HCV replicon 2B (HCV replicon 2B, read-out: 2B IC50); 8.75 in the experiment with HCV replicon 1AQ30D (HCV replicon 1A Q30D, read-out: 1A Q30D IC50); 11.30 with HCV replicon 1B (HCV replicon 1B).
Usually IC50 stands for the concentration that inhibits the measured activity by half. As to `COC(=O)N[C@H](C(=O)N1CCC[C@H]1c1ncc(-c2cc(F)c3c(c2)OC(c2ccc(-c4ccc(N=[N+]=[N-])cc4)s2)n2c-3cc3cc(-c4cnc([C@@H]5CCCN5C(=O)[C@@H](NC(=O)OC)C(C)C)[nH]4)ccc32)[nH]1)C(C)C` (mixture of isomers) [Compound 264], the IC50 worked out at 0.029 nM in the experiment on HCV replicon 1AY93H (Hepatitis C virus), 0.19 nM in the experiment with HCV replicon 2B (Hepatitis C virus) and 0.7 nM in the experiment on HCV replicon 1AQ30D (Hepatitis C virus). For the same molecule, the pIC50 in the experiment on HCV replicon 1A (Hepatitis C virus, replicon 1A) was 11.43; with HCV replicon 1B (Hepatitis C virus, replicon 1B), 11.37.
In the case of `COC(=O)N[C@H](C(=O)N1CCC[C@H]1c1ncc(-c2cc(F)c3c(c2)OC(c2ccc(-c4ccc(I)cc4)s2)n2c-3cc3cc(-c4cnc([C@@H]5CCCN5C(=O)[C@@H](NC(=O)OC)C(C)C)[nH]4)ccc32)[nH]1)C(C)C` (mixture of isomers) [Compound 313], the concentration for half-maximal inhibition (IC50) with HCV replicon 1AY93H (Hepatitis C virus) worked out at 0.026 nM; in the experiment with HCV replicon 2B (Hepatitis C virus) it was 0.1 nM; with HCV replicon 1AQ30D (Hepatitis C virus) it was 0.19 nM. Also, the negative-log IC50 (pIC50) was 11.49 in the experiment on HCV replicon 1A (Hepatitis C virus, replicon 1A) and 11.54 with HCV replicon 1B (Hepatitis C virus, replicon 1B).
For the molecule `COC(=O)N[C@H](C(=O)N1CCC[C@H]1c1ncc(-c2cc(F)c3c(c2)OC(c2ccc(C4CC4)s2)n2c-3cc3cc(-c4cnc([C@@H]5CCCN5C(=O)[C@@H](NC(=O)OC)C5CC6(COC6)C5)[nH]4)ccc32)[nH]1)C(C)C` (mixture of isomers) [Compound 531], the negative logarithm of the IC50 (pIC50) is 9.04 in the experiment on HCV replicon 1AY93H (Hepatitis C virus, read-out: 1A Y93H IC50, HCV replicon 1A Y93H); 11.04 in the experiment with HCV replicon 1A (Hepatitis C virus, HCV replicon 1A); 8.36 in the experiment with HCV replicon 2B (Hepatitis C virus, read-out: 2B IC50, HCV replicon 2B); 8.40 with HCV replicon 1AQ30D (Hepatitis C virus, read-out: 1A Q30D IC50, HCV replicon 1A Q30D); 8.88 in the experiment with HCV replicon 1B (Hepatitis C virus, HCV replicon 1B).
With `CCc1ccc(C2Oc3cc(-c4cnc([C@@H]5CCCN5C(=O)[C@@H](NC(=O)OC)C(C)C)[nH]4)cc(F)c3-c3cc4cc(-c5cnc([C@@H]6CCCN6C(=O)[C@@H](NC(=O)OC)C(C)C)[nH]5)ccc4n32)s1` (single isomer, unassigned) [Compound 3], the IC50 came out at 4.7 nM with HCV replicon 1AY93H (Hepatitis C virus), 4.45 nM in the experiment with HCV replicon 2B (Hepatitis C virus) and 50.6 nM with HCV replicon 1AQ30D (Hepatitis C virus). The pIC50 in the experiment with HCV replicon 1A (Hepatitis C virus, replicon 1A) was 11.44; with HCV replicon 1B (Hepatitis C virus, replicon 1B) it was 11.92.
On to `COC(=O)N[C@H](C(=O)N1CCC[C@H]1c1ncc(-c2cc(F)c3c(c2)OC(c2ccc(C4CC4)s2)n2c-3cc3cc(-c4cnc([C@@H]5CCCN5C(=O)[C@@H](NC(=O)OC)C(C)C)[nH]4)ccc32)[nH]1)C(C)C` (single isomer, unassigned) [Compound 6], for which the pIC50 is 10.96 with HCV replicon 1AY93H (setting [1]); 11.72 in the experiment on HCV replicon 1A (replicon 1A); 10.55 in the experiment on HCV replicon 2B (replicon 2B, read-out: 2B IC50); 9.49 in the experiment with HCV replicon 1AQ30D (setting [2]); 11.82 with HCV replicon 1B (replicon 1B).
For `COC(=O)N[C@H](C(=O)N1[C@@H]2C[C@@H]2C[C@H]1c1ncc(-c2ccc3c(c2)OC(c2ccc(C4CC4)s2)n2c-3cc3cc(-c4cnc([C@@H]5C[C@H]6C[C@H]6N5C(=O)[C@@H](NC(=O)OC)C(C)C)[nH]4)ccc32)[nH]1)C(C)C` (single isomer, unassigned) [Compound 8], in that order: 9.48, 10.76, 9.85, 9.33 and 11.57.
Take `COC(=O)N[C@H](C(=O)N1CCC[C@H]1c1ncc(-c2cc(F)c3c(c2)OC(c2ccc(C#N)s2)n2c-3cc3cc(-c4cnc([C@@H]5CCCN5C(=O)[C@@H](NC(=O)OC)C(C)C)[nH]4)ccc32)[nH]1)C(C)C` (single isomer, unassigned) [Compound 17]: the pIC50 with HCV replicon 1AY93H (setting [3]) is 9.72; in the experiment with HCV replicon 1A (Hepatitis C virus, replicon 1A), 11.59; with HCV replicon 2B (read-out: 2B IC50, replicon 2B) it was 9.27; with HCV replicon 1AQ30D (setting [4]), 8.54; with HCV replicon 1B (Hepatitis C virus, replicon 1B), 11.68.
Regarding `COC(=O)N[C@H](C(=O)N1CCC[C@H]1c1ncc(-c2cc(F)c3c(c2)OC(c2ccc(C#N)s2)n2c-3cc3cc(-c4cnc([C@@H]5CCCN5C(=O)[C@@H](NC(=O)OC)C(C)C)[nH]4)ccc32)[nH]1)C(C)C` (single isomer, unassigned) [Compound 18], the negative logarithm of the IC50 (pIC50) is 8.50 with HCV replicon 1AY93H (setting [3]); 11.66 in the experiment on HCV replicon 1A (replicon 1A); 8.46 with HCV replicon 2B (read-out: 2B IC50, replicon 2B); 7.18 in the experiment on HCV replicon 1AQ30D (setting [4]); 11.52 in the experiment with HCV replicon 1B (replicon 1B).
For `COC(=O)N[C@H](C(=O)N1CCC[C@H]1c1ncc(-c2cc(F)c3c(c2)OC(c2cc(C4CC4)cs2)n2c-3cc3cc(-c4cnc([C@@H]5CCCN5C(=O)[C@@H](NC(=O)OC)C(C)C)[nH]4)ccc32)[nH]1)C(C)C` (single isomer, unassigned) [Compound 23], the negative logarithm of the IC50 (pIC50) with HCV replicon 1AY93H (setting [3]) is 9.62; in the experiment with HCV replicon 1A (Hepatitis C virus, replicon 1A), 11.49; in the experiment on HCV replicon 2B (read-out: 2B IC50, replicon 2B), 9.11; with HCV replicon 1AQ30D (setting [4]), 8.76; in the experiment with HCV replicon 1B (Hepatitis C virus, replicon 1B), 11.41.
As for `COC(=O)N[C@H](C(=O)N1CCC[C@H]1c1ncc(-c2cc(F)c3c(c2)OC(c2cc(C4CC4)cs2)n2c-3cc3cc(-c4cnc([C@@H]5CCCN5C(=O)[C@@H](NC(=O)OC)C(C)C)[nH]4)ccc32)[nH]1)C(C)C` (single isomer, unassigned) [Compound 24], the negative-log IC50 (pIC50) with HCV replicon 1AY93H (setting [3]) was 8.87; in the experiment with HCV replicon 1A (replicon 1A), 11.57; in the experiment with HCV replicon 2B (read-out: 2B IC50, replicon 2B), 8.56; in the experiment with HCV replicon 1AQ30D (setting [4]), 7.83; in the experiment with HCV replicon 1B (replicon 1B) it was 11.51.
As for `COC(=O)N[C@H](C(=O)N1CCC[C@H]1c1ncc(-c2cc(F)c3c(c2)OC(c2ccc(C(C)C)s2)n2c-3cc3cc(-c4cnc([C@@H]5CCCN5C(=O)[C@@H](NC(=O)OC)C(C)C)[nH]4)ccc32)[nH]1)C(C)C` (single isomer, unassigned) [Compound 35], the IC50 came out at 0.62 nM in the experiment on HCV replicon 1AY93H (Hepatitis C virus), 1.43 nM in the experiment on HCV replicon 2B (Hepatitis C virus) and 11.5 nM in the experiment with HCV replicon 1AQ30D (Hepatitis C virus). Also, the negative-log IC50 (pIC50) with HCV replicon 1A (Hepatitis C virus, replicon 1A) is 11.77; with HCV replicon 1B (Hepatitis C virus, replicon 1B), 11.85.
In the case of `COC(=O)N[C@H](C(=O)N1CCC[C@H]1c1ncc(-c2cc(F)c3c(c2)OC(c2ccc(C(C)C)s2)n2c-3cc3cc(-c4cnc([C@@H]5CCCN5C(=O)[C@@H](NC(=O)OC)C(C)C)[nH]4)ccc32)[nH]1)C(C)C` (single isomer, unassigned) [Compound 36], the negative logarithm of the IC50 (pIC50) in the experiment on HCV replicon 1AY93H (setting [1]) is 11.22; in the experiment on HCV replicon 1A (replicon 1A), 11.77; in the experiment on HCV replicon 2B (replicon 2B, read-out: 2B IC50), 10.28; in the experiment with HCV replicon 1AQ30D (setting [2]), 9.72; with HCV replicon 1B (replicon 1B), 11.96.
In the case of `COC(=O)NC(C(=O)N1CCC[C@H]1c1ncc(-c2ccc3c(c2)cc2n3C(c3cc(C)c(C)s3)Oc3cc(-c4cnc([C@@H]5CCCN5C(=O)[C@@H](NC(=O)OC)C(C)C)[nH]4)cc(F)c3-2)[nH]1)C(C)(C)F` (single isomer, unassigned) [Compound 39], the pIC50 with HCV replicon 1AY93H (setting [3]) is 9.92; in the experiment with HCV replicon 1A (replicon 1A) it was 11.70; with HCV replicon 1B (Hepatitis C virus, replicon 1B), 12.00. The IC50 was found to be 0.45 nM with HCV replicon 2B (Hepatitis C virus) and 0.61 nM in the experiment on HCV replicon 1AQ30D (Hepatitis C virus).
For `COC(=O)N[C@H](C(=O)N1CCC[C@H]1c1ncc(-c2cc(F)c3c(c2)OC(c2ccc(CCF)s2)n2c-3cc3cc(-c4cnc([C@@H]5CCCN5C(=O)[C@@H](NC(=O)OC)C(C)C)[nH]4)ccc32)[nH]1)C(C)C` (single isomer, unassigned) [Compound 44], the pIC50 was 10.92 with HCV replicon 1AY93H (setting [3]); 11.82 in the experiment with HCV replicon 1A (replicon 1A); 10.00 in the experiment with HCV replicon 2B (read-out: 2B IC50, replicon 2B); 11.92 with HCV replicon 1B (Hepatitis C virus, replicon 1B). In addition, in the experiment with HCV replicon 1AQ30D (Hepatitis C virus), the IC50 worked out at 0.54 nM.
